Assays:
[1] = target: human immuno proteasome (LMP7) (Homo sapiens (Human), UniProt P28062); assay: Determination of LMP7 activity (fluorescence intensity assay, Suc-LLVY-AMC); format: biochemical
How it was run: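 Fluorogenic Suc-LLVY-AMC cleavage (40 μM substrate, 60 min, 37° C., ex 350/em 450 nm) measured after 0.25 nM human immunoproteasome was exposed to compound at 30 μM–15 pM. Preincubation was 20 min by default or 120 min (long) at 25° C., in Tris pH 7.4 with 0.03% SDS, 1 mM EDTA and 1% DMSO.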

[2] = target: human constitutive proteasome (Beta5) (Homo sapiens (Human), UniProt P28074); assay: Determination of Beta5 activity (fluorescence intensity assay, Suc-LLVY-AMC); format: biochemical
How it was run: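 Purified human constitutive proteasome (1.25 nM) preincubated with compounds (30 μM–15 pM) for 20 min (default) or 120 min at 25 °C in 50 mM Tris pH 7.4, 0.03% SDS, 1 mM EDTA, 1% DMSO. Suc-LLVY-AMC substrate at 40 μM, 60 min at 37 °C. Fluorescence read at ex 350/em 450 nm.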

[3] = LMP7 versus Beta5, long incubation (120 min)

Compound	Selectivity LMP7 vs Beta5 [1, 3]	IC50 ([1]; long incubation (120 min)) [nM]	IC50 ([2]; long incubation (120 min)) [nM]	Selectivity LMP7 vs Beta5 ([1]; LMP7 versus Beta5, incubation for 20 minutes)	IC50 ([1]; incubation for 20 minutes) [nM]	IC50 ([2]; incubation for 20 minutes) [nM]
C=CC(=O)N(CC(=O)N[C@@H](Cc1ccsc1)B(O)O)c1ccccc1F [Compound No. 78, [(1R)-1-[[2-(2-fluoro-N-prop-2-enoyl-anilino)acetyl]amino]-2-(3-thienyl)ethyl]boronic Acid]	+++++ (Selectivity ≥ 150)	< 50	> 5000	–	–	–
C=CC(=O)N(CC)CC(=O)N[C@@H](Cc1cccc2ccccc12)B(O)O [Compound No. 79, [(1R)-1-[[2-[ethyl(prop-2-enoyl)amino]acetyl]amino]-2-(1-naphthyl)ethyl]boronic Acid]	+++++ (Selectivity ≥ 150)	50 to 500	> 5000	–	–	–
C=CC(=O)N(C)CC(=O)N[C@@H](Cc1cccc2ccccc12)B(O)O [Compound No. 80, [(1R)-1-[[2-[methyl(prop-2-enoyl)amino]acetyl]amino]-2-(1-naphthyl)ethyl]boronic Acid]	+++++ (Selectivity ≥ 150)	50 to 500	> 5000	–	–	–
C=CC(=O)N(CC)CC(=O)N[C@@H](Cc1ccc2ccccc2c1)B(O)O [Compound No. 81, [(1R)-1-[[2-[ethyl(prop-2-enoyl)amino]acetyl]amino]-2-(2-naphthyl)ethyl]boronic Acid]	+++++ (Selectivity ≥ 150)	< 50	> 5000	–	–	–
C=CC(=O)N(C)CC(=O)N[C@@H](Cc1ccc2ccccc2c1)B(O)O [Compound No. 82, [(1R)-1-[[2-[methyl(prop-2-enoyl)amino]acetyl]amino]-2-(2-naphthyl)ethyl]boronic Acid]	+++++ (Selectivity ≥ 150)	< 50	500 to 5000	–	–	–
C=CC(=O)N(CC(=O)N[C@@H](Cc1ccc(C)c(C)c1)B(O)O)CC(F)F [Compound No. 83, [(1R)-1-[[2-[2,2-difluoroethyl(prop-2-enoyl)amino]acetyl]-amino]-2-(3,4-dimethylphenyl)ethyl]boronic Acid]	+++++ (Selectivity ≥ 150)	50 to 500	> 5000	–	–	–
C=CC(=O)N(CC(=O)N[C@@H](Cc1ccc(C)cc1C)B(O)O)CC(F)F [Compound No. 84, [(1R)-1-[[2-[2,2-difluoroethyl(prop-2-enoyl)amino]acetyl]-amino]-2-(2,4-dimethylphenyl)ethyl]boronic Acid]	+++++ (Selectivity ≥ 150)	50 to 500	> 5000	–	–	–
C=CC(=O)N(C)CC(=O)N[C@@H](Cc1ccc(Cl)cc1Cl)B(O)O [Compound No. 85, [(1R)-2-(2,4-dichlorophenyl)-1-[[2-[methyl(prop-2-enoyl)amino]acetyl]amino]ethyl]boronic Acid]	+++++ (Selectivity ≥ 150)	< 50	> 5000	–	–	–
C=CC(=O)N(CC(=O)N[C@@H](Cc1coc2ccccc12)B(O)O)c1ccccc1F [Compound No. 86, [(1R)-2-(benzofuran-3-yl)-1-[[2-(2-fluoro-N-prop-2-enoyl-anilino)acetyl]amino]ethyl]boronic Acid]	+++++ (Selectivity ≥ 150)	< 50	50 to 500	–	–	–
C=CC(=O)N(CC(=O)N[C@@H](Cc1ccc(C)cc1C)B(O)O)c1ccccc1Cl [Compound No. 87, [(1R)-1-[[2-(2-chloro-N-prop-2-enoyl-anilino)acetyl]amino]-2-(2,4-dimethylphenyl)ethyl]boronic Acid]	–	–	–	+++++ (Selectivity ≥ 150)	< 50	> 5000
C=CC(=O)NCC(=O)N[C@@H](Cc1ccc(C)c(C)c1)B(O)O [Compound No. 88, [(1R)-2-(3,4-dimethylphenyl)-1-[[2-(prop-2-enoylamino)acetyl]amino]ethyl]boronic Acid]	+++++ (Selectivity ≥ 150)	< 50	500 to 5000	–	–	–
